In patent US8183296B2, “Pesticide phenyloxy substituted phenylamidine derivatives” (Bayer Cropscience AG, priority 2005, dated 2012):

Legend:
[1] = logP by HPLC on reversed-phase column (C 18), EEC Directive 79/831 Annex V.A8; format: physicochemical; conditions: C 18, 40° C., 0.1% aqueous formic acid and acetonitrile; for chromatographic logP: reversed-phase HPLC column (C 18), read-out: logPa
Experimental: Temperature: 40° C.; Mobile phases: 0.1% aqueous formic acid and acetonitrile; linear gradient from 10% acetonitrile to 90% acetonitrile.
Calibration was carried out using unbranched alkan-2-ones (comprising 3 to 16 carbon atoms) with known logP values (determination of the logP values by the retention times using linear interpolation between two successive alkanones).

[2] = test system: Erysiphe graminis f.sp. hordei; assay: In vivo preventive test on Erysiphe graminis (powdery mildew on barley); conditions: Blumeria graminis, topical, 168 h, 1000 ppm of active ingredient, evaluated 7 days after inoculation, read-out: efficacy
Experimental: In Vivo Preventive Test on Erysiphe gramini (Powdery Mildew on Barley)
To produce a suitable preparation of active compound, 1 part by weight of active compound or active compound combination is mixed with the stated amounts of solvent and emulsifier, and the concentrate is diluted with water to the desired concentration.
To test for preventive activity, young plants are sprayed with the preparation of active compound or active compound combination at the stated rate of application.
After the spray coating has dried on, the plants are dusted with spores of Erysiphe graminis f.sp. hordei
The plants are placed in a greenhouse at a temperature of approximately 20° C. and a relative atmospheric humidity of approximately 80% to promote the development of mildew pustules.
(§1) The test is evaluated 7 days after the inoculation. 0% means an efficacy which corresponds to that of the control, while an efficacy of 100% means that no disease is observed.

Podosphaera leucotricha = assay: In vivo protective test on Podosphaera leucotricha (apples); conditions: topical, 240 h, 100 ppm of active ingredient, evaluated 10 days after inoculation, read-out: efficacy
Excerpt: In Vivo Protective Test on Podosphaera leucotricha (Apples) [table] […] To test for protective activity, young plants are sprayed with the preparation of active compound at the stated rate of application. After the spray coating has dried on, the plants are inoculated with an aqueous spore suspension of the causal agent of apple mildew (Podosphaera leucotricha).

Sphaerotheca fuliginea = assay: In vivo protective test on Sphaerotheca fuliginea (cucumbers); conditions: Podosphaera fuliginea, topical, 168 h, 100 ppm of active ingredient, evaluated 7 days after inoculation, read-out: efficacy
Experimental: In Vivo Protective Test on Sahaerotheca fuliginea (Cucumbers)
(§2) To produce a suitable preparation of active compound, 1 part by weight of active compound is mixed with the stated amounts of solvent and emulsifier, and the concentrate is diluted with water to the desired concentration.
To test for protect activity, young plants are sprayed with the preparation of active compound at the stated rate of application. After the spray coating has dried on, the plants are inoculated with an aqueous spore suspension of Sphaerotheca fuliginea. The plants are then placed in a greenhouse at approximately 23° C. and a relative atmospheric humidity of approximately 70%.
as §1

[3] = test system: Puccinia recondita f. Sp. tritici; assay: In vivo preventive test on Puccinia recondita f. Sp. tritici (wheat brown rust); conditions: topical, 240 h, 1000 ppm of active ingredient, evaluated 10 days after inoculation, read-out: efficacy
Experimental: In Vivo Preventive Test on Puccinia recondita f. Sp. tritici (Wheat Brown Rust)
as §2
To test for preventive activity, young plants are […]. After the spray coating has dried on, the plants are sprayed with the preparation of active compound at the stated rate of application. The plants remain for 24 hours in an incubation cabinet at 20° C. and a relative atmospheric humidity of 100%.
The plants are placed in a greenhouse at a temperature of approximately 20° C. and a relative atmospheric humidity of approximately 80% to promote the development of rust pustules.
The test is evaluated 10 days after the inoculation. 0% means an efficacy which corresponds to that of the control, while an efficacy of 100% means that no disease is observed.

Alternaria solani = assay: In vivo protective test on Alternaria solani (leaf spot of tomato); conditions: topical, 168 h, 500 ppm of active ingredient, evaluated 7 days after inoculation, read-out: efficacy
Experimental: In Vivo Protective Test on Alternaria solani (Leaf Spot of Tomato)
as §2
To test for protective activity, young plants are sprayed with the preparation of active compound at the stated rate of application. After the spray coating has dried on, the plants are inoculated with an aqueous spore suspension of Alternatia solani. The plants remain for one day in an incubation cabinet at approximately 20° C. and a relative atmospheric humidity of 100%. Then the plants are placed in an incubation cabinet at approximately 20° C. and a relative atmospheric humidity of 96%.
The test is evaluated 7 days after the inoculation. 0% means an efficacy which corresponds to that of the control while an efficacy of 100% means that no disease is observed.

logPa [1] | chromatographic logP [1] | Compound | pest or weed control at 1000 ppm [3] | also measured
2.80 | – | Cc1cc(Oc2cc(Cl)c(/N=C/N3CCCCC3C)cc2C)ccc1Cl (racemic) [Example 52] | – | –
3.33 | – | Cc1cc(/N=C/N2CCCCC2C)c(Cl)cc1Oc1ccc(Cl)c(C(C)(C)C)c1 (racemic) [Example 54] | – | –
3.07 | – | Cc1cc(/N=C/N2CCCCC2C)c(Cl)cc1Oc1ccc(Cl)c(C(C)C)c1 (racemic) [Example 62] | – | –
– | 2.31 | CCN(C)/C=N/c1cc(C)c(Oc2ccc(Cl)c(C)c2)cc1C [Example 4] | – | –
– | 2.56 | CCc1cc(Oc2cc(C)c(/N=C/N(C)CC)cc2C)ccc1Cl [Example 5] | ≥ 70% | pest or weed control at 1000 ppm [2]: ≥ 70%; pest or weed control at 100 ppm (Podosphaera leucotricha): ≥ 70%; pest or weed control at 100 ppm (Sphaerotheca fuliginea): ≥ 70%; pest or weed control at 500 ppm (Alternaria solani): ≥ 70%
2.21 | – | Cc1cc(Oc2ccc(Cl)c(C(C)(C)C)c2)c(C)cc1/N=C/N(C)C1CC1 [Example 7] | – | –
– | 3.3 | CCCN(C)/C=N/c1cc(C)c(Oc2ccc(Cl)c(C(C)(C)C)c2)cc1C [Example 8] | ≥ 70% | pest or weed control at 1000 ppm [2]: ≥ 70%; pest or weed control at 100 ppm (Podosphaera leucotricha): ≥ 70%; pest or weed control at 100 ppm (Sphaerotheca fuliginea): ≥ 70%; pest or weed control at 500 ppm (Alternaria solani): ≥ 70%
– | 5.12 | CCN(C)/C(S)=N/c1cc(C)c(Oc2ccc(Cl)c(C(C)(C)C)c2)cc1C [Example 10] | – | pest or weed control at 1000 ppm [2]: ≥ 70%; pest or weed control at 100 ppm (Podosphaera leucotricha): ≥ 70%; pest or weed control at 100 ppm (Sphaerotheca fuliginea): ≥ 70%; pest or weed control at 500 ppm (Alternaria solani): ≥ 70%
– | 2.84 | CCCN(C)/C=N/c1cc(Cl)c(Oc2ccc(Cl)c(CC)c2)cc1C [Example 11] | ≥ 70% | pest or weed control at 1000 ppm [2]: ≥ 70%; pest or weed control at 100 ppm (Podosphaera leucotricha): ≥ 70%; pest or weed control at 100 ppm (Sphaerotheca fuliginea): ≥ 70%
2.89 | – | CCc1cc(Oc2cc(C)c(/N=C/N(C)C3CC3)cc2Cl)ccc1Cl [Example 12] | – | –
2.71 | – | CCc1cc(Oc2cc(C)c(/N=C/N(C)C3CC3)cc2C)ccc1Cl [Example 15] | – | –
– | 2.4 | Cc1cc(Oc2cc(C)c(/N=C/N(C)C(C)C)cc2C)ccc1Cl [Example 16] | ≥ 70% | pest or weed control at 1000 ppm [2]: ≥ 70%; pest or weed control at 100 ppm (Podosphaera leucotricha): ≥ 70%; pest or weed control at 500 ppm (Alternaria solani): ≥ 70%
2.96 | – | Cc1cc(Oc2ccc(Cl)c(C(C)C)c2)c(Cl)cc1/N=C/N(C)C1CC1 [Example 23] | – | –
3.24 | – | Cc1cc(Oc2ccc(Cl)c(C(C)(C)C)c2)c(Cl)cc1/N=C/N(C)C1CC1 [Example 24] | – | –
– | 3 | CCCN(C)/C=N/c1cc(C)c(Oc2ccc(Cl)c(C(C)C)c2)cc1C [Example 27] | ≥ 70% | pest or weed control at 1000 ppm [2]: ≥ 70%; pest or weed control at 100 ppm (Podosphaera leucotricha): ≥ 70%; pest or weed control at 100 ppm (Sphaerotheca fuliginea): ≥ 70%
– | 4.81 | CCN(C)/C(S)=N/c1cc(C)c(Oc2ccc(Cl)c(C(C)C)c2)cc1C [Example 29] | ≥ 70% | pest or weed control at 100 ppm (Podosphaera leucotricha): ≥ 70%; pest or weed control at 100 ppm (Sphaerotheca fuliginea): ≥ 70%
3.98 | – | Cc1cc(Oc2ccc(Br)c(C(C)C)c2)c(Cl)cc1/N=C/N(C)C1CC1 [Example 31] | – | –
– | 3.21 | Cc1cc(Oc2ccc(Br)c(C(C)C)c2)c(Cl)cc1/N=C/N(C)C(C)C [Example 33] | – | –
– | 2.91 | CCCN(C)/C=N/c1cc(Cl)c(Oc2ccc(Br)c(C(C)C)c2)cc1C [Example 34] | ≥ 70% | pest or weed control at 1000 ppm [2]: ≥ 70%; pest or weed control at 100 ppm (Podosphaera leucotricha): ≥ 70%; pest or weed control at 100 ppm (Sphaerotheca fuliginea): ≥ 70%
5.44 | – | CCN(C)/C(S)=N/c1cc(C)c(Oc2ccc(Cl)c(C(C)(C)C)c2)cc1C [Example 35] | ≥ 70% | –
3.11 | – | Cc1cc(Oc2ccc(Cl)c(C(C)(C)C)c2)c(Cl)cc1/N=C/N1CCCCC1 [Example 36] | – | –
2.74 | – | CCc1cc(Oc2cc(C)c(/N=C/N3CCCCC3)cc2Cl)ccc1Cl [Example 37] | – | –
– | 2.45 | CCN(C)/C=N/c1cc(C#N)c(Oc2ccc(Cl)c(C(C)C)c2)cc1C [Example 38] | ≥ 70% | pest or weed control at 1000 ppm [2]: ≥ 70%

logPa [1] | chromatographic logP [1] | Compound | pest or weed control at 1000 ppm [3] | also measured
– | 3.01 | Cc1cc(/N=C/N(C)C(C)C)c(Cl)cc1Oc1ccc(Cl)c(C(C)(C)C)c1 [Example 39] | ≥ 70% | pest or weed control at 1000 ppm [2]: ≥ 70%; pest or weed control at 100 ppm (Sphaerotheca fuliginea): ≥ 70%
– | 3.2 | CCC(C)N(C)/C=N/c1cc(C)c(Oc2ccc(Cl)c(C(C)(C)C)c2)cc1C (stereo not drawn) [Example 40] | ≥ 70% | pest or weed control at 100 ppm (Sphaerotheca fuliginea): ≥ 70%
– | 2.98 | CCC(C)N(C)/C=N/c1cc(C)c(Oc2ccc(Cl)c(C(C)C)c2)cc1C (stereo not drawn) [Example 41] | ≥ 70% | pest or weed control at 100 ppm (Sphaerotheca fuliginea): ≥ 70%
– | 2.9 | CCC(C)N(C)/C=N/c1cc(Cl)c(Oc2ccc(Cl)c(C(C)C)c2)cc1C (stereo not drawn) [Example 42] | ≥ 70% | –
– | 3.19 | CCC(C)N(C)/C=N/c1cc(Cl)c(Oc2ccc(Cl)c(C(C)(C)C)c2)cc1C (stereo not drawn) [Example 43] | – | –
– | 2.29 | Cc1cc(Oc2cc(C)c(/N=C/N(C)C(C)C)cc2C)ccc1F [Example 44] | ≥ 70% | pest or weed control at 100 ppm (Sphaerotheca fuliginea): ≥ 70%
3.02 | – | Cc1cc(Oc2ccc(Cl)c(C(C)(C)C)c2)c(C)cc1/N=C/N1CCCCC1 [Example 45] | – | –
3.11 | – | CCN(C)/C=N/c1cc(C)c(Oc2ccc(Cl)c(CC(C)(C)C)c2)cc1C [Example 46] | – | –
3.01 | – | CCN(C)/C=N/c1cc(C)c(Oc2ccc(Cl)c(C[Si](C)(C)C)c2)cc1C [Example 47] | – | –
3.18 | – | CCN(C)/C=N/c1cc(C)c(Oc2ccc(Cl)c(C3CCCCC3)c2)cc1C [Example 48] | – | –
– | 2.39 | CCN(C)/C=N/c1cc(C)c(Oc2ccc(Cl)c(C)c2)cc1Cl [Example 49] | – | –
– | 2.48 | Cc1cc(Oc2cc(Cl)c(/N=C/N(C)C(C)C)cc2C)ccc1Cl [Example 50] | – | –
2.58 | – | Cc1cc(Oc2cc(Cl)c(/N=C/N3CCCCC3)cc2C)ccc1Cl [Example 51] | – | –
3.25 | – | Cc1cc(/N=C/N2CCCCC2)c(Cl)cc1Oc1ccc(Cl)c(C(C)(C)C)c1 [Example 53] | – | –
– | 2.95 | CCCCc1cc(Oc2cc(C)c(/N=C/N(C)CC)cc2C)ccc1Cl [Example 55] | ≥ 70% | –
– | 2.92 | CCN(C)/C=N/c1cc(C)c(Oc2ccc(Cl)c(CC(C)C)c2)cc1C [Example 56] | ≥ 70% | –
2.26 | – | CCN(C)/C=N/c1cc(C)c(Oc2ccc(Cl)c(C(C)(C)OC)c2)cc1C [Example 57] | – | –
– | 2.78 | CCN(C)/C=N/c1cc(C)c(Oc2ccc(Cl)c(C(C)C)c2)cc1Cl [Example 60] | – | –
3.25 | – | Cc1cc(Oc2ccc(Cl)c(C(C)(C)C)c2)c(C)cc1/N=C/N1CCC(F)(F)CC1 [Example 61] | – | –
– | 2.67 | CCN(C)/C=N/c1cc(Br)c(Oc2ccc(Cl)c(C(C)(C)C)c2)cc1C [Example 63] | – | –
3.28 | – | CCN(C)/C=N/c1cc(C)c(Oc2ccc(Cl)c(C3CCCC3)c2)cc1C [Example 64] | – | –
3.19 | – | Cc1cc(Oc2ccc(Cl)c(CC(C)(C)C)c2)c(C)cc1/N=C/N1CCCCC1 [Example 65] | – | –
